For 41 compounds, IC50 and IC90 results are on record in ChEMBL document CHEMBL4483862, “Open-source discovery of chemical leads for next-generation chemoprotective antimalarials” (2018).

The assay relates to Plasmodium berghei. Kind of assay: Luciferase/luciferin-expressing antifolate-resistant parasites were used to infect a culture of HepG2 cells that were pre-incubated with compounds. Infected hepatocytes emit light due to the luciferase reaction. Assay results are presented as the percent inhibition of light emission compared to control. […]. The settings on record: sporozoite; for IC90: read-out: LUCIFERASE INFECTION ASSAY - IC90. The assay is classed as functional.

[1] abbreviates: read-out: LUCIFERASE INFECTION ASSAY - IC50.

Broadly, the IC50 is the midpoint of a concentration-inhibition curve. Broadly, the IC90 is the point of the concentration-response curve where the effect stands at 90%. For the compound `Cc1nn(-c2ccccc2)c2c1C(c1cccnc1)C(c1nc3ccccc3s1)C(c1ccccc1)=N2` (configuration not stated), the IC90 is above 10 µM. For the setting “FFLUC_HILL_SLOPE 3.11, FFLUC_R_SQUARED 0.548, read-out: LUCIFERASE INFECTION ASSAY - IC50”, the IC50 is above 10 µM.
On to `COc1ccc(NC(=O)Nc2cccc(C(F)(F)F)c2)cc1`, for which the IC90 was above 10.6 µM. Also, the IC50 under setting [1] is above 10.6 µM.
With `COc1ccc(-c2cnc3cnc(-c4cccc(F)c4)cn23)cc1`, the IC90 was found to be 7.12 µM. Moreover, the IC50 (HEPG2TOX_HILL_SLOPE 2.64, HEPG2TOX_R_SQUARED 0.99, PBLUC_HILL_SLOPE 1.99, PBLUC_R_SQUARED 0.779, read-out: LUCIFERASE INFECTION ASSAY - IC50) was found to be 2.36 µM.
Turning to `CN(C)C(=O)CN(C)S(=O)(=O)/C=C/c1ccccc1`, the IC90 is above 10 µM. The half-maximal inhibitory concentration (IC50) under setting [1] is above 10 µM.
For the compound `Cc1ccc2c(c1)C(=O)C(=O)N2CCN1CCCCC1`, the IC90 was above 12.1 µM. Further, the IC50 (FFLUC_HILL_SLOPE 11.5, FFLUC_R_SQUARED 0.31, read-out: LUCIFERASE INFECTION ASSAY - IC50) was above 12.1 µM.
In the case of `CC(=O)c1ccc(NC(=O)c2cc(-c3cc(C)ccc3C)nc3ccccc23)cc1`, the IC90 was above 8.37 µM. In addition, the IC50 (PBLUC_HILL_SLOPE 2.38, PBLUC_R_SQUARED 0.305, read-out: LUCIFERASE INFECTION ASSAY - IC50) was 4.56 µM.
As to `Cc1nnsc1-c1onc(C)c1C(=O)NC(=O)Nc1ccccc1`, the IC90 was above 9.61 µM. For the same compound, under setting [1], the IC50 came out at 4.69 µM.
`CC1=NN(c2ccccc2)C(=O)/C1=C\c1cc(C)n(-c2cc(C(F)(F)F)ccc2Cl)c1C`: the IC90 was above 10 µM. The IC50 (FFLUC_HILL_SLOPE 2.69, FFLUC_R_SQUARED 0.551, PBLUC_HILL_SLOPE 5.7, PBLUC_R_SQUARED 0.538, read-out: LUCIFERASE INFECTION ASSAY - IC50) was determined as 7.1 µM.
As for `COc1ccc(C2CC(CCc3c[nH]c4ccccc34)=NN2c2ccccc2)cc1` (configuration not stated), the IC90 worked out at 3.8 µM. In addition, the IC50 under setting [1] was 3.35 µM.
For the compound `COc1ccc(Nc2nccc3c2cc(-c2ccccc2OC)n3C)c(OC)c1`, the IC90 is 8.07 µM. Further, the IC50 (PBLUC_HILL_SLOPE 3.43, PBLUC_R_SQUARED 0.599, read-out: LUCIFERASE INFECTION ASSAY - IC50) stood at 4.25 µM.
`CC1(C)CCc2cc(/C=N/OC(=O)Nc3ccc(OC(F)(F)F)cc3)ccc2O1`: the IC90 is above 8.08 µM. Also, the IC50 under setting [1] is above 8.08 µM.
Turning to `CC(C)CN1CCC1(C(=O)Nc1ccncc1)c1ccccc1` (configuration not stated), the IC90 amounted to 6.57 µM. For the same compound, the IC50 (HEPG2TOX_HILL_SLOPE 0.888, HEPG2TOX_R_SQUARED 0.951, PBLUC_HILL_SLOPE 1.36, PBLUC_R_SQUARED 0.753, read-out: LUCIFERASE INFECTION ASSAY - IC50) turned out to be 1.31 µM.
As for `CCCn1c(N)c(C(=O)CN(Cc2ccco2)Cc2cccs2)c(=O)[nH]c1=O`, the IC90 is above 10 µM. For the setting “PBLUC_HILL_SLOPE 2.23, PBLUC_R_SQUARED 0.528, read-out: LUCIFERASE INFECTION ASSAY - IC50”, the IC50 is 5.46 µM.
As for `CN(C)CC(=O)N1CCN(c2nc(/C=C/c3ccccc3)nc3sc4c(c23)CCCC4)CC1`, the IC90 came out at 5.01 µM. For the same compound, the IC50 (PBLUC_HILL_SLOPE 3.64, PBLUC_R_SQUARED 0.565, read-out: LUCIFERASE INFECTION ASSAY - IC50) stood at 2.74 µM.
For the compound `COc1cc(C(=O)N/N=C2/C(=O)c3cccc4cccc2c34)cc(OC)c1OC`, the IC90 is 3.67 µM. In addition, the IC50 (HEPG2TOX_HILL_SLOPE 1.4, HEPG2TOX_R_SQUARED 0.956, PBLUC_HILL_SLOPE 15.6, PBLUC_R_SQUARED 0.526, read-out: LUCIFERASE INFECTION ASSAY - IC50) was 3.19 µM.
As to `Cc1noc2nc(C(C)C)cc(C(=O)Nc3nc4ccccc4[nH]3)c12`, the IC90 was above 10 µM. Also, the IC50 under setting [1] was above 10 µM.
Regarding `CN(C)CCNc1ccnc2c(-c3ccc4ccccc4c3)cnn12`, the IC90 is above 9.96 µM. In addition, for the setting “PBLUC_HILL_SLOPE 0.931, PBLUC_R_SQUARED 0.843, read-out: LUCIFERASE INFECTION ASSAY - IC50”, the IC50 amounted to 1.06 µM.
Consider `CS(=O)(=O)Nc1cccc(-c2cnc3sc(NCCOc4ccccc4)nn23)c1`, for which the concentration for an effect of 90% (IC90) was above 7.68 µM. In addition, the IC50 (PBLUC_HILL_SLOPE 4.91, PBLUC_R_SQUARED 0.558, read-out: LUCIFERASE INFECTION ASSAY - IC50) stood at 5.02 µM.
On to `Cc1ccc(S(=O)(=O)Oc2c(C(C)C)cc(Nc3cc(C)ccc3C)cc2C(C)C)cc1`, for which the IC90 was above 10 µM. Also, the IC50 (HEPG2TOX_HILL_SLOPE 0.156, HEPG2TOX_R_SQUARED 0.126, PBLUC_HILL_SLOPE 13.1, PBLUC_R_SQUARED 0.436, read-out: LUCIFERASE INFECTION ASSAY - IC50) was 9 µM.
Turning to `COc1cc(-c2cnc(N)c(-c3ccc(F)c(Cl)c3)c2)ccc1O`, the IC90 was above 9.57 µM. The half-maximal inhibitory concentration (IC50) (PBLUC_HILL_SLOPE 10.3, PBLUC_R_SQUARED 0.243, read-out: LUCIFERASE INFECTION ASSAY - IC50) came out at 8.4 µM.
As for `COc1ccc(-c2ccc3ncc(-c4cccc(C(=O)NCCN(C)C)c4)n3n2)cc1OC`, the IC90 amounted to 0.309 µM. Moreover, the IC50 (HEPG2TOX_HILL_SLOPE 0.532, HEPG2TOX_R_SQUARED 0.94, PBLUC_HILL_SLOPE 3.74, PBLUC_R_SQUARED 0.793, read-out: LUCIFERASE INFECTION ASSAY - IC50) is 0.172 µM.
In the case of `CN(CC(=O)Nc1ccc(-c2nc3ccccc3[nH]2)cc1)S(=O)(=O)c1cccs1`, the IC90 was above 10 µM. The IC50 (PBLUC_HILL_SLOPE 3.6, PBLUC_R_SQUARED 0.614, read-out: LUCIFERASE INFECTION ASSAY - IC50) is 8.33 µM.
On to `CC(=O)c1c(C)[nH]c(C(=O)Nc2ccc3ccccc3n2)c1C`, for which the IC90 worked out at 1.16 µM. The IC50 under setting [1] amounted to 0.934 µM.
Take `O=C(Cc1cccs1)NCC(c1ccccc1Cl)c1c[nH]c2ccccc12` (configuration not stated): the IC90 came out at 9.35 µM. Also, the IC50 (FFLUC_HILL_SLOPE 3.31, FFLUC_R_SQUARED 0.784, PBLUC_HILL_SLOPE 3.75, PBLUC_R_SQUARED 0.47, read-out: LUCIFERASE INFECTION ASSAY - IC50) amounted to 5.2 µM.
Take `CCC(C)(C)NC(=O)CSC(c1ccc(F)cc1)c1ccc(F)cc1`: the IC90 is above 10 µM. Also, the IC50 under setting [1] is above 10 µM.
With `CC(NCC(O)COc1ccccc1C(C)(C)C)c1ccccc1` (configuration not stated), the IC90 was above 9.07 µM. The IC50 (PBLUC_HILL_SLOPE 2.67, PBLUC_R_SQUARED 0.166, read-out: LUCIFERASE INFECTION ASSAY - IC50) was 4.35 µM.
Take `CC(Nc1ccc(N(C)C(C)C)c(F)c1)C(=O)N1CCCC1` (configuration not stated): the IC90 is 9.36 µM. Also, the IC50 (PBLUC_HILL_SLOPE 12.8, PBLUC_R_SQUARED 0.621, read-out: LUCIFERASE INFECTION ASSAY - IC50) came to 7.89 µM.
Consider `O=C(CN1C(=O)C(=O)N(C2CCCC2)C1=O)Nc1cc(Cl)ccc1[N+](=O)[O-]`, for which the concentration for an effect of 90% (IC90) was above 10 µM. Also, under setting [1], the IC50 is above 10 µM.
As for `O=C1C=C(c2ccccc2)C(=O)N1c1cccc(Cl)c1`, the IC90 is above 11.6 µM. Further, for the setting “FFLUC_HILL_SLOPE 29.2, FFLUC_R_SQUARED 0.289, PBLUC_HILL_SLOPE 11, PBLUC_R_SQUARED 0.329, read-out: LUCIFERASE INFECTION ASSAY - IC50”, the IC50 amounted to 11.3 µM.
Turning to `Cc1ccc2c(C)cc(Sc3nc4ccccc4s3)nc2c1`, the IC90 was above 10 µM. The IC50 under setting [1] was above 10 µM.
As to `O=C1/C(=C/c2ccc(F)cc2)CCC/C1=C\c1ccc(F)cc1`, the IC90 was above 10.6 µM. Besides, the IC50 (HEPG2TOX_HILL_SLOPE 7.08, HEPG2TOX_R_SQUARED 0.955, read-out: LUCIFERASE INFECTION ASSAY - IC50) is above 10.6 µM.
As for `Cc1csc(-c2nc(-c3ccc(C(C)(C)C)cc3)no2)c1`, the IC90 was above 11.1 µM. Further, the IC50 under setting [1] was above 11.1 µM.
As to `CC(C)c1ccc(NC(=O)Nc2nc(C(N)C3CCCCC3)cs2)cc1` (configuration not stated), the IC90 is above 8.86 µM. Further, the IC50 (PBLUC_HILL_SLOPE 7.05, PBLUC_R_SQUARED 0.602, read-out: LUCIFERASE INFECTION ASSAY - IC50) was found to be 7.75 µM.
As to `CCCn1c(-c2ccccc2)nc2c(c(=O)c3ccccc3n2C)c1=O`, the IC90 is 3.93 µM. In addition, the IC50 under setting [1] was 3.2 µM.
Consider `COCC(C)n1c(C)cc(C(=O)CSc2ncnc3sc(C)c(C)c23)c1C` (configuration not stated), for which the IC90 is above 10 µM. Moreover, the IC50 under setting [1] was above 10 µM.
`Cc1cc(C)n(-c2nc(-c3ccccc3)cc(N3CCCCCC3)n2)n1`: the IC90 worked out at 7.45 µM. Moreover, the IC50 (PBLUC_HILL_SLOPE 3.96, PBLUC_R_SQUARED 0.269, read-out: LUCIFERASE INFECTION ASSAY - IC50) amounted to 4.28 µM.
Take `Cc1nc2ccc(NC(=O)c3ccc4[nH]c(C)c(C)c4c3)cc2s1`: the IC90 is above 9.84 µM. The IC50 (PBLUC_HILL_SLOPE 1.58, PBLUC_R_SQUARED 0.399, read-out: LUCIFERASE INFECTION ASSAY - IC50) was above 9.84 µM.
As to `CN(C)n1cccc1/C=C(\C#N)S(C)(=O)=O`, the IC90 is above 13.8 µM. Under setting [1], the IC50 was above 13.8 µM.
For the compound `CN(C)c1ccc(NC(=O)N2[C@@H]3CC[C@@H](C3)[C@H]2c2nc3cccc(OCc4ccc(F)cc4)c3[nH]2)cc1`, the IC90 is above 10 µM. For the same compound, for the setting “PBLUC_HILL_SLOPE 11.3, PBLUC_R_SQUARED 0.0257, read-out: LUCIFERASE INFECTION ASSAY - IC50”, the IC50 was above 10 µM.
`Cc1cccn2c(=O)cc(CSc3cc(C(=O)NC4CC4)c4ccccc4n3)nc12`: the IC90 was above 10 µM. For the same compound, under setting [1], the IC50 was above 10 µM.
`O=C(Nc1cccc(F)c1)Nc1ccc2nc(-c3ccoc3)nn2c1`: the IC90 was above 10 µM. The IC50 (PBLUC_HILL_SLOPE 11.8, PBLUC_R_SQUARED 0.647, read-out: LUCIFERASE INFECTION ASSAY - IC50) came out at 8.63 µM.
